Measured values taken from US12522597B2, “Methods and compositions for modulating splicing” (Skyhawk Therapeutics, Inc., priority 2019, dated 2026).

How the values were obtained:
[1] = test system: mHTT protein; assay: mHTT protein assay (2B7-MW1, Mesoscale Discovery); type: cell-based, human; settings: GM04724 (CAG 70/20) Huntington's disease patient lymphoblast cells, 48 hours, 2B7-MW1 MSD; read-out: HTT Potency - Protein EC50 mHTT (average)
Method: Compounds are tested on GM04724 (CAG 70/20) Huntington's disease patient lymphoblast cells at doses ranging from 10 μM to 0.6 nM. 4,500 cells/well are seeded in 384 well plates. One plate replica is carried out for parallel viability testing by CellTiter Glo (CTG). Compounds are incubated for 48 hours, mHTT protein levels are assessed by the 2B7-MW1 assay via Mesoscale Discovery (MSD) as previously reported (Macdonald et al., 2014). The antibody pair is comprised of previously characterized monoclonals (2B7 and MW1) interrogating two regions for HTT conformation and biological properties: the N17 domain and the polyQ domain (Baldo et al., 2012; Ko et., 2001). 2B7-MW1 is dependent on subject/animal specific levels of HTT at the time of treatment. 2B7-MW1 is dependent on polyQ expansion (e.g., the higher the expansion the higher the signal) and on mHTT size (e.g., a similar polyQ will give higher signal with smaller HTT size). The viability readout is carried out by CTG according to the manufacturer's instructions.

[2] = test system: MDR1-MDCK cell monolayers; assay: MDCK-MDR1 permeability assay (BBB penetration potential); type: in vitro ADME; settings: dog, MDCK-MDR1, 120 min, 5 μM, pH 7.4
Method: (§1) Each determination is performed in duplicate. […] Analytical conditions are outlined below.

[3] = test system: MDR1; assay: as above; type: in vitro ADME; settings: dog; for efflux ratio at 120 min, 5 μM: MDCK-MDR1, pH 7.4, MDCK-MDR1: Efflux; for Papp A→B at 120 min, 5 μM: MDCK-MDR1, pH 7.4, MDCK-MDR1: Papp A-B; for Papp B→A at 120 min, 5 μM: MDCK-MDR1, pH 7.4, MDCK-MDR1: Papp B-A
Method: as §1

Row | SMILES | EC50 [1] [nM] | MDCK-MDR1: % Recov A-B [2] [%] | MDCK-MDR1: % Recov B-A [2] [%] | efflux ratio at 120 min, 5 μM [3] | Papp A→B at 120 min, 5 μM [3] [×10⁻⁶ cm/s] | Papp B→A at 120 min, 5 μM [3] [×10⁻⁶ cm/s] | MDCK-MDR1: Efflux [2] | MDCK-MDR1: Papp A-B [2] | MDCK-MDR1: Papp B-A [2]
1 | Oc1cc(-n2cccn2)ccc1-c1ccc(O[C@@H]2C[C@H]3CC[C@H](N3)[C@@H]2F)nn1 (single isomer, unassigned) [35-ENT1] | 101 to 500 | 77 | 87 | 4 | 8.31 | 32.8 |  |  | 
2 | Oc1cc(-n2ccnc2)ccc1-c1ccc(O[C@@H]2C[C@H]3CC[C@H](N3)[C@@H]2F)nn1 (single isomer, unassigned) [36-ENT1] | 51 to 100 | 74 | 83 | 5 | 5.28 | 26 |  |  | 
3 | Oc1cc(-n2ccnc2)ccc1-c1ccc(O[C@H]2C[C@@H]3CC[C@@H](N3)[C@H]2F)nn1 (single isomer, unassigned) [36-ENT2] | 51 to 100 | 61 | 73 | 5 | 5.41 | 28.9 |  |  | 
4 | Oc1cc(-c2cn[nH]c2)ccc1-c1ccc(O[C@@H]2C[C@H]3CCC[C@H](N3)[C@H]2F)nn1 (single isomer, unassigned) [41-ENT2] | 16 to 50 | 66 | 74 | 8 | 4.96 | 40.9 |  |  | 
5 | Oc1cc(-n2ccnc2)ccc1-c1ccc(O[C@@H]2C[C@H]3CC(F)(F)[C@@H](C2)N3)nn1 (single isomer, unassigned) [51-ENT1] | 501 to 10000 | 90 | 99 | 2 | 32.2 | 51.5 |  |  | 
6 | Oc1cc(-n2ccnc2)ccc1-c1ccc(O[C@H]2C[C@@H]3CC(F)(F)[C@H](C2)N3)nn1 (single isomer, unassigned) [51-ENT2] | 501 to 10000 | 86 | 90 | 2 | 25.8 | 46.7 |  |  | 
7 | O=c1cc(-c2cc(O)c(-c3ccc(O[C@@H]4C[C@H]5CCC[C@H](N5)[C@@H]4F)nn3)cc2F)cc[nH]1 (single isomer, unassigned) [57-ENT1] | 101 to 500 | 94 | 101 | 73 | 0.26 | 18.9 |  |  | 
8 | O=c1cc(-c2cc(O)c(-c3ccc(O[C@H]4C[C@@H]5CCC[C@@H](N5)[C@H]4F)nn3)cc2F)cc[nH]1 (single isomer, unassigned) [57-ENT2] | 101 to 500 | 77 | 87 | 90 | 0.35 | 31.3 |  |  | 
9 | Cn1cc(-c2cc(O)c(-c3ccc(O[C@@H]4CC5CC[C@H](N5)[C@@H]4F)nn3)cn2)cn1 (single isomer, unassigned) [63-ENT1] | 501 to 10000 | 103 | 110 | 37 | 0.29 | 10.9 |  |  | 
10 | Cn1cc(-c2cc(O)c(-c3ccc(O[C@H]4C[C@@H]5CCC(N5)[C@H]4F)nn3)cn2)cn1 (single isomer, unassigned) [63-ENT2] | 501 to 10000 | 96 | 107 | 38 | 0.26 | 9.6 |  |  | 
11 | Oc1cc(-c2cc[nH]n2)ccc1-c1ccc(O[C@@H]2C[C@H]3CCC[C@H](N3)[C@@H]2F)nn1 (single isomer, unassigned) [66-ENT1] | 51 to 100 | 79 | 80 | 11 | 0.93 | 10.1 |  |  | 
12 | Oc1cc(-c2cc[nH]n2)ccc1-c1ccc(O[C@H]2C[C@@H]3CCC[C@@H](N3)[C@H]2F)nn1 (single isomer, unassigned) [66-ENT2] | 51 to 100 | 79 | 78 | 9 | 1.18 | 11.2 |  |  | 
13 | Cc1ccc(-c2ccc(-c3ccc(O[C@@H]4C[C@H]5CCC[C@H](N5)[C@@H]4F)nn3)c(O)c2)cn1 (single isomer, unassigned) [67-ENT1] | 101 to 500 | 44 | 62 | 7 | 4.42 | 29.8 |  |  | 
14 | Cc1ccc(-c2ccc(-c3ccc(O[C@H]4C[C@@H]5CCC[C@@H](N5)[C@H]4F)nn3)c(O)c2)cn1 (single isomer, unassigned) [67-ENT2] | 101 to 500 | 59 | 76 | 6 | 3.34 | 20.7 |  |  | 
15 | Oc1cc(-n2ccnn2)ccc1-c1ccc(O[C@@H]2C[C@H]3CCC[C@H](N3)[C@@H]2F)nn1 (single isomer, unassigned) [69-ENT1] | 101 to 500 | 89 | 93 | 5 | 9.2 | 47.6 |  |  | 
16 | Oc1cc(-n2ccnn2)ccc1-c1ccc(O[C@H]2C[C@@H]3CCC[C@@H](N3)[C@H]2F)nn1 (single isomer, unassigned) [69-ENT2] | 101 to 500 | 86 | 93 | 5 | 10.7 | 55.9 |  |  | 
17 | Cc1ncn(-c2ccc(-c3ccc(O[C@@H]4C[C@H]5CCC[C@H](N5)[C@@H]4F)nn3)c(O)c2)n1 (single isomer, unassigned) [70-ENT1] | 101 to 500 | 93 | 99 | 7 | 6.62 | 44.6 |  |  | 
18 | Cc1ncn(-c2ccc(-c3ccc(O[C@H]4C[C@@H]5CCC[C@@H](N5)[C@H]4F)nn3)c(O)c2)n1 (single isomer, unassigned) [70-ENT2] | 101 to 500 | 94 | 105 | 5 | 7.47 | 40.1 |  |  | 
19 | Cc1nc(-c2ccc(-c3ccc(O[C@@H]4C[C@H]5CCC[C@H](N5)[C@@H]4F)nn3)c(O)c2)cs1 (single isomer, unassigned) [71-ENT2] | 16 to 50 | 50 | 67 | 6 | 5.78 | 33.1 |  |  | 
20 | Cc1nocc1-c1ccc(-c2ccc(O[C@H]3C[C@@H]4CCC[C@@H](N4)[C@H]3F)nn2)c(O)c1 (single isomer, unassigned) [72-ENT1] | 101 to 500 | 74 | 93 |  |  |  | 9 | 5.74 10^−6, cm/s | 51 10^−6, cm/s
